Measurements published in patent US7964613B2 (Asahi Kasei Pharma Corporation, priority 2007, dated 2011).

System: rabbit normal intraocular pressure
Experiment: Intraocular pressure reducing action
Assay type: in vivo, Japanese white rabbit
Conditions: Oryctolagus cuniculus, topical; 3 mM aqueous solution, 50 μl to the left eye; max IOP reduction (2, 4, 6 hours) / value immediately before administration; read-out: intraocular pressure reducing degree
Description: A Japanese white rabbit having a body weight of about 2 kg was placed in a positioner and naturalized for one week before the experiment. An opthalmologic local anesthesant (Benoxil) was administered to both eyes, and then intraocular pressure was measured by using a tonometer (Classic 30, Solan). A 3 mM aqueous solution of a test compound was administered in a volume of 50 μl to the left eye, and the right eye was not treated (control eye). The intraocular pressure values were measured for the left and right eyes immediately before, and 2, 4 and 6 hours after the administration of the aqueous solution of the test compound, and the difference of the measured values for the left and right eyes was considered an intraocular pressure reduction value of the test medicament at each measurement time. The largest difference of the values for the left and right eyes among the measured values at the measurement times (after 2, 4 and 6 hours) was considered the maximum intraocular pressure reduction value (max ? IOP) of each test medicament. The intraocular pressure reducing degree representing the intraocular pressure reducing action of each test medicament was calculated according to the following formula. Since rabbits show significant daily variation of intraocular pressure, daily variation is added when change of intraocular pressure is measured over time, and the intraocular pressure reducing action may be overestimated. Therefore, we used this calculation method of intraocular pressure reduction value in order to minimize the influence of the variation. Intraocular pressure reducing degree(%)=(max ? IOP/Intraocular pressure value immediately before administration)×100

NC(C(=O)N[C@H]1CCN(S(=O)(=O)c2cccc3cncc(Cl)c23)C1)c1ccccc1 (stereo partly drawn) [Example 106, (S)-3-[(2-Amino-2-phenyl)acetyl]amino-1-(4-chloro-5-isoquinolinesulfonyl)pyrrolidine]
inhibition in vivo at 3000 µM: ≥ 20%

CC(=O)N[C@H]1CCN(S(=O)(=O)c2cccc3cncc(Cl)c23)C1 [Example 49-1, (S)-3-(Acetylamino)-1-(4-chloro-5-isoquinolinesulfonyl)pyrrolidine]
inhibition in vivo at 3000 µM: 10 to 20%

CN(C)CC(=O)N(C)[C@H]1CCN(S(=O)(=O)c2cccc3cncc(Cl)c23)C1 [Example 66-1, (S)-3-[N-(2-Dimethylamino)acetyl-N-methyl]amino-1-(4-chloro-5-isoquinolinesulfonyl)pyrrolidine]
inhibition in vivo at 3000 µM: 5 to 10%

O=C(CN1CCN(CCO)CC1)N[C@H]1CCN(S(=O)(=O)c2cccc3cncc(Cl)c23)C1 [Example 92, (S)-3-[2-[4-(2-Hydroxyethyl)piperazin-1-yl]acetyl]amino-1-(4-chloro-5-isoquinolinesulfonyl)pyrrolidine]
inhibition in vivo at 3000 µM: 10 to 20%

COCC(=O)N(C)[C@H]1CCN(S(=O)(=O)c2cccc3cncc(F)c23)C1 [Example 116, (S)-3-[N-(2-Methoxyacetyl)-N-methyl]amino-1-(4-fluoro-5-isoquinolinesulfonyl)pyrrolidine]
inhibition in vivo at 3000 µM: 10 to 20%

CSCCC(=O)N[C@H]1CCN(S(=O)(=O)c2cccc3cncc(Cl)c23)C1 [Example 79, (S)-3-[3-(Methylthio)propionyl]amino-1-(4-chloro-5-isoquinolinesulfonyl)pyrrolidine]
inhibition in vivo at 3000 µM: 10 to 20%

CN(C)CCOCC(=O)N[C@H]1CCN(S(=O)(=O)c2cccc3cncc(Cl)c23)C1 [Example 111, (S)-3-[2-[2-(Dimethylamino)ethoxy]acetyl]amino-1-(4-chloro-5-isoquinolinesulfonyl)pyrrolidine]
inhibition in vivo at 3000 µM: 5 to 10%

O=C(CN1CCOC1=O)N[C@H]1CCN(S(=O)(=O)c2cccc3cncc(Cl)c23)C1 [Example 93, (S)-3-[2-(2-Oxooxazolidin-3-yl)acetyl]amino-1-(4-chloro-5-isoquinolinesulfonyl)pyrrolidine]
inhibition in vivo at 3000 µM: 10 to 20%

NCC1CCCCN1S(=O)(=O)c1cccc2cncc(Cl)c12 (centres unmarked) [Example 61, 2-(Aminomethyl)-1-(4-chloro-5-isoquinolinesulfonyl)piperidine]
inhibition in vivo at 3000 µM: 10 to 20%

COCCC(=O)N[C@H]1CCN(S(=O)(=O)c2cccc3cncc(Cl)c23)C1 [Example 77, (S)-3-(3-Methoxypropionyl)amino-1-(4-chloro-5-isoquinolinesulfonyl)pyrrolidine]
inhibition in vivo at 3000 µM: ≥ 20%

CN(C)CC(=O)N(C)[C@H]1CCN(S(=O)(=O)c2cccc3cncc(F)c23)C1 [Example 118, (S)-3-[N-(2-Dimethylamino)acetyl-N-methyl]amino-1-(4-fluoro-5-isoquinolinesulfonyl)pyrrolidine]
inhibition in vivo at 3000 µM: 5 to 10%

O=C(CN1CCCC1=O)N[C@H]1CCN(S(=O)(=O)c2cccc3cncc(Cl)c23)C1 [Example 87, (S)-3-[2-(2-Oxopyrrolidin-1-yl)acetyl]amino-1-(4-chloro-5-isoquinolinesulfonyl)pyrrolidine]
inhibition in vivo at 3000 µM: 10 to 20%

O=C(Cn1cncn1)N[C@H]1CCN(S(=O)(=O)c2cccc3cncc(Cl)c23)C1 [Example 84, (S)-3-[2-(1H-1,2,4-Triazol-1-yl)acetyl]amino-1-(4-chloro-5-isoquinolinesulfonyl)pyrrolidine]
inhibition in vivo at 3000 µM: 10 to 20%

CN1CCN(CC(=O)N[C@H]2CCN(S(=O)(=O)c3cccc4cncc(Cl)c34)C2)CC1 [Example 89, (S)-3-[2-(4-Methylpiperazin-1-yl)acetyl]amino-1-(4-chloro-5-isoquinolinesulfonyl)pyrrolidine]
inhibition in vivo at 3000 µM: 5 to 10%

O=C(COc1ccc2nncn2n1)N[C@H]1CCN(S(=O)(=O)c2cccc3cncc(Cl)c23)C1 [Example 107, (S)-3-[2-([1,2,4]Triazolo[4,3-b]pyridazin-6-yloxy)acetyl]amino-1-(4-chloro-5-isoquinolinesulfonyl)pyrrolidine]
inhibition in vivo at 3000 µM: 10 to 20%

COCC(COC)OCC(=O)N[C@H]1CCN(S(=O)(=O)c2cccc3cncc(Cl)c23)C1 [Example 108, (S)-3-[2-(1,3-Dimethoxypropan-2-yloxy)acetyl]amino-1-(4-chloro-5-isoquinolinesulfonyl)pyrrolidine]
inhibition in vivo at 3000 µM: ≥ 20%

CC(=O)NCCC(=O)NC1CCN(S(=O)(=O)c2cccc3cncc(Cl)c23)C1 (stereo in doubt) [Example 97, (R)-3-[(3-Acetylamino)propionyl]amino-1-(4-chloro-5-isoquinolinesulfonyl)pyrrolidine]
inhibition in vivo at 3000 µM: 10 to 20%

O=C(CO)N[C@H]1CCN(S(=O)(=O)c2cccc3cncc(Cl)c23)C1 [Example 74, (S)-3-(2-Hydroxyacetyl)amino-1-(4-chloro-5-isoquinolinesulfonyl)pyrrolidine]
inhibition in vivo at 3000 µM: 10 to 20%

O=C(CCn1cnnn1)N[C@H]1CCN(S(=O)(=O)c2cccc3cncc(Cl)c23)C1 [Example 82, (S)-3-[3-(1H-Tetrazol-1-yl)propionyl]amino-1-(4-chloro-5-isoquinolinesulfonyl)pyrrolidine]
inhibition in vivo at 3000 µM: 5 to 10%

O=C(Cn1ccnc1)N[C@H]1CCN(S(=O)(=O)c2cccc3cncc(Cl)c23)C1 [Example 86, (S)-3-[2-(1H-Imidazol-1-yl)acetyl]amino-1-(4-chloro-5-isoquinolinesulfonyl)pyrrolidine]
inhibition in vivo at 3000 µM: 10 to 20%

COCC(=O)N[C@H]1CCN(S(=O)(=O)c2cccc3cncc(F)c23)C1 [Example 115, (S)-3-(2-Methoxyacetyl)amino-1-(4-fluoro-5-isoquinolinesulfonyl)pyrrolidine]
inhibition in vivo at 3000 µM: 5 to 10%

O=C(CNC(=O)c1ccccc1)N[C@H]1CCN(S(=O)(=O)c2cccc3cncc(Cl)c23)C1 [Example 94, (S)-3-[(2-Benzoylamino)acetyl]amino-1-(4-chloro-5-isoquinolinesulfonyl)pyrrolidine]
inhibition in vivo at 3000 µM: 10 to 20%

O=C(CCOc1ccccc1)N[C@H]1CCN(S(=O)(=O)c2cccc3cncc(Cl)c23)C1 [Example 76, (S)-3-(3-Phenoxypropionyl)amino-1-(4-chloro-5-isoquinolinesulfonyl)pyrrolidine]
inhibition in vivo at 3000 µM: 10 to 20%

O=C(CN1CCNCC1)N[C@H]1CCN(S(=O)(=O)c2cccc3cncc(Cl)c23)C1 [Example 91, (S)-3-[2-(piperazin-1-yl)acetyl]amino-1-(4-chloro-5-isoquinolinesulfonyl)pyrrolidine]
inhibition in vivo at 3000 µM: 10 to 20%

COCC(=O)N(C)[C@H]1CCN(S(=O)(=O)c2cccc3cncc(Cl)c23)C1 [Example 67-1, (S)-3-[N-(2-Methoxyacetyl)-N-methyl]amino-1-(4-chloro-5-isoquinolinesulfonyl)pyrrolidine]
inhibition in vivo at 3000 µM: 10 to 20%

COCCOCCOCC(=O)N[C@H]1CCN(S(=O)(=O)c2cccc3cncc(Cl)c23)C1 [Example 99, (S)-3-[2-[2-(2-Methoxyethoxy)ethoxy]acetyl]amino-1-(4-chloro-5-isoquinolinesulfonyl)pyrrolidine]
inhibition in vivo at 3000 µM: 10 to 20%

N[C@H]1CCN(S(=O)(=O)c2cccc3cncc(-c4cnoc4)c23)C1 [Example 24-1, (S)-3-Amino-1-[4-(4-isoxazolyl)-5-isoquinolinesulfonyl]pyrrolidine]
inhibition in vivo at 3000 µM: 5 to 10%

COCCOCC(=O)N[C@H]1CCN(S(=O)(=O)c2cccc3cncc(Cl)c23)C1 [Example 98, (S)-3-[2-(2-Methoxyethoxy)acetyl]amino-1-(4-chloro-5-isoquinolinesulfonyl)pyrrolidine]
inhibition in vivo at 3000 µM: ≥ 20%

O=C(CNC(=O)c1cccnc1)N[C@H]1CCN(S(=O)(=O)c2cccc3cncc(Cl)c23)C1 [Example 95, (S)-3-[(2-Nicotinamino)acetyl]amino-1-(4-chloro-5-isoquinolinesulfonyl)pyrrolidine]
inhibition in vivo at 3000 µM: 10 to 20%

CN(C)CC(=O)N[C@H]1CCN(S(=O)(=O)c2cccc3cncc(Br)c23)C1 [Example 73, (S)-3-[(2-Dimethylamino)acetyl]amino-1-(4-bromo-5-isoquinolinesulfonyl)pyrrolidine]
inhibition in vivo at 3000 µM: 10 to 20%

N#Cc1cncc2cccc(S(=O)(=O)N3CC[C@H](N)C3)c12 [Example 13-1, (S)-3-Amino-1-(4-cyano-5-isoquinolinesulfonyl)pyrrolidine]
inhibition in vivo at 3000 µM: 5 to 10%

CN(C)CC(=O)N[C@H]1CCN(S(=O)(=O)c2cccc3cncc(F)c23)C1 [Example 117, (S)-3-[(2-Dimethylamino)acetyl]amino-1-(4-fluoro-5-isoquinolinesulfonyl)pyrrolidine]
inhibition in vivo at 3000 µM: 5 to 10%

COCC(=O)N[C@H]1CCN(S(=O)(=O)c2cccc3cncc(C)c23)C1 [Example 70, (S)-3-(2-Methoxyacetyl)amino-1-(4-methyl-5-isoquinolinesulfonyl)pyrrolidine]
inhibition in vivo at 3000 µM: ≥ 20%

O=S(=O)(c1cccc2cncc(Cl)c12)N1CC[C@H](NC2CCOC2)C1 (stereo partly drawn) [Example 59-1, (3S)-3-(3-Tetrahydrofuranyl)amino-1-(4-chloro-5-isoquinolinesulfonyl)pyrrolidine]
inhibition in vivo at 3000 µM: 10 to 20%

O=C(CCO)N[C@H]1CCN(S(=O)(=O)c2cccc3cncc(Cl)c23)C1 [Example 75, (S)-3-(3-Hydroxypropionyl)amino-1-(4-chloro-5-isoquinolinesulfonyl)pyrrolidine]
inhibition in vivo at 3000 µM: 10 to 20%
